The numbers were not newly measured in patent US20230372216A1, “METHOD FOR DYEING KERATINOUS MATERIAL, COMPRISING THE USE OF AN ORGANOSILICON COMPOUND, A DYEING COMPOUND, A SEALING REAGENT AND A PRE-TREATMENT AGENT” (Henkel AG & Co. KGaA, priority 2020, published 2023), which cites them from elsewhere.

For this series the following is noted: 25° C.
Regarding `CCN(Cc1cccc(S(=O)(=O)[O-])c1)c1ccc(C(=C2C=CC(=[N+](CC)Cc3cccc(S(=O)(=O)[O-])c3)C=C2)c2ccccc2S(=O)(=O)[O-])cc1.[Na+].[Na+]` [Acid Blue 9], the solubility in water result was “more than 20 wt. %”.

For `Nc1cc(S(=O)(=O)[O-])cc2cc(S(=O)(=O)[O-])c(N=Nc3ccccc3)c(O)c12.[Na+].[Na+]` [Acid Red 33, disodium salt of 5-amino-4-hydroxy-3-(phenylazo)-naphthalene-2,7-disulphonate], the solubility in water was 2.5 mg/mL.

With “sodium salts of mono- and disulfonic acids of 2-(2-quinolyl)-1H-indene-1,3(2H)-dione [Acid Yellow 3]”, the solubility in water was 20 mg/mL.

For the compound `O=C([O-])c1c(Cl)c(Cl)c(Cl)c(Cl)c1-c1c2c(Br)cc(=O)c(Br)c-2oc2c(Br)c(O)cc(Br)c12.O=C([O-])c1c(Cl)c(Cl)c(Cl)c(Cl)c1-c1c2c(Br)cc(=O)c(Br)c-2oc2c(Br)c(O)cc(Br)c12.[Na+].[Na+]` [Acid Red 92, disodium salt of 3,4,5,6-tetrachloro-2-(1,4,5,8-tetrabromo-6-hydroxy-3-oxoxanthen-9-yl)benzoic acid], the solubility in water entry is “greater than 10 g/L”.

For the compound `O=S(=O)([O-])c1ccc(N=Nc2c(O)ccc3ccccc23)cc1.[Na+]` [Acid Orange 7, sodium salt of 4-[(2-hydroxy-1-naphthyl)azo]benzene sulphonate], the solubility in water entry is on record as “more than 7 g/L”.

Turning to `O=C([O-])C1=NN(c2ccc(S(=O)(=O)[O-])cc2)C(=O)C1N=Nc1ccc(S(=O)(=O)[O-])cc1.[Na+].[Na+].[Na+]` (stereo not drawn) [Acid Yellow 23, trisodium salt of 4,5-dihydro-5-oxo-1-(4-sulfophenyl)-4-((4-sulfophenyl)azo)-1H-pyrazole-3-carboxylic acid], the “solubility in water (in words)” value is on record as “highly soluble in water”.
